{"source": "patent US20100112089A1", "about": "“PEPTIDE COMPOUND AND USE THEREOF” (Takeda Pharmaceutical Company Limited, priority 2008, published 2010)", "key": {"[1]": {"assay": "Pharmacokinetics of CBP501, combination study", "type": "in vivo, human", "conditions": "for Cl / AUC(0-inf) / Cmax / clearance / half-life: combination with cisplatin; for AUC(0-inf) / Cmax / clearance / half-life: human, in vivo"}, "[2]": {"assay": "Tissue distribution of 3H-labelled CBP501, NCI-H226 xenograft model", "type": "in vivo, SCID mice", "conditions": "NCI-H226 and MSTO-211H xenograft tumors, Table 15", "protocol": "A suspension of NCI-H226 cells was injected subcutaneously into the flanks of six weeks old male severe […] combined immune deficiency (SCID) mice (Charles River Lab., Wilmington, Mass.). The size of tumors was measured three times a week using a caliper. The volumes were calculated using the following formula: volume (cm^3)=[width^2 (mm)×length (mm)]/2000. The relative tumor volume was expressed as the Vt/V0 index, where Vt is the tumor volume on a measured day, and V0 is the volume of the same tumor just before the first treatment. Mean relative tumor sizes with standard error of mean, SEM, were plotted. Body weight was measured three times weekly from the first treatment, and the weight change was expressed as a percentage of the initial weight. Animals were housed in accordance with guidelines from the Association for the Assessment and Accreditation of Laboratory Animal Care International, and the protocols were approved by the institutional animal care committee of CanBas Co., Ltd.\nAn N-terminal amino acid, p-benzoylphenylalanyl, was ^3H labeled by Daiichi Kagaku Yakuhin Co., Ltd. (Tokyo, Japan)."}, "[3]": {"conditions": "at the recommended dose; non-patent literature 15; read-out: Cmax in the human studies; cited from earlier work"}, "[4]": {"conditions": "CBP501 7.2 mg/m^2, Day 1, mean, N 3"}, "[5]": {"conditions": "CBP501 10.8 mg/m^2, Day 1, mean, N 5"}, "[6]": {"conditions": "CBP501 16.2 mg/m^2, Day 1, mean, N 3"}, "[7]": {"conditions": "CBP501 24.3 mg/m^2, Day 1, mean, N 2"}, "[8]": {"conditions": "CBP501 36.45 mg/m^2, Day 1, mean, N 5"}}, "note": "Structures can show the parent of a compound that is named as a salt. Where two headings read alike, the source gives them in different places. Square brackets hold non-standard residues; d marks the D form. Peptide text beside a SMILES is read from it. dPhe(F5) = N[C@H](Cc1c(F)c(F)c(F)c(F)c1F)C(=O)O; dBpa = N[C@H](Cc1ccc(C(=O)c2ccccc2)cc1)C(=O)O; dCha = N[C@H](CC1CCCCC1)C(=O)O"}
{"smiles": "N=C(N)NCCC[C@@H](NC(=O)[C@@H](CCCNC(=N)N)NC(=O)[C@@H](CCC(N)=O)NC(=O)[C@@H](CCCNC(=N)N)NC(=O)[C@@H](CCCNC(=N)N)NC(=O)[C@@H](CCCNC(=N)N)NC(=O)[C@@H](CC1CCCCC1)NC(=O)[C@@H](Cc1c(F)c(F)c(F)c(F)c1F)NC(=O)[C@@H](CO)NC(=O)[C@@H](Cc1c[nH]c2ccccc12)NC(=O)[C@@H](CO)NC(=O)[C@H](N)Cc1ccc(C(=O)c2ccccc2)cc1)C(=O)O", "note": "[CBP501, H-(D)p-Benzoylphenylalanyl-(D)seryl-(D)tryptophyl-(D)seryl-(D)pentafluorophenylalanyl-(D)cyclohexylalanyl-(D)arginyl-(D)arginyl-(D)arginyl-(D)glutaminyl-(D)arginyl-(D)arginine acetate salt] (H-[dBpa][dS][dW][dS][dPhe(F5)][dCha][dR][dR][dR][dQ][dR][dR]-OH)", "values": [{"measurement": "Cl", "setting": "[1]; [4]", "value": 2752, "unit": "mL/h/m^2"}, {"measurement": "Cl", "setting": "[1]; [5]", "value": 2198, "unit": "mL/h/m^2"}, {"measurement": "Cl", "setting": "[1]; [6]", "value": 2124, "unit": "mL/h/m^2"}, {"measurement": "Cl", "setting": "[1]; [7]", "value": 1217, "unit": "mL/h/m^2"}, {"measurement": "Cl", "setting": "[1]; [8]", "value": 971, "unit": "mL/h/m^2"}, {"measurement": "Cl", "setting": "[1]; CBP501 […]^2, Day 1, mean, N 6", "value": 2526, "unit": "mL/h/m^2"}, {"measurement": "AUC(0-inf)", "setting": "[1]; [4]", "value": 2820, "unit": "ng·h/mL"}, {"measurement": "Cmax", "setting": "[1]; [4]", "value": 1770, "unit": "ng/mL"}, {"measurement": "clearance", "setting": "[1]; [4]", "value": 1.25, "unit": "mL/min/kg"}, {"measurement": "half-life", "setting": "[1]; [4]", "value": 1.7, "unit": "h"}, {"measurement": "AUC(0-inf)", "setting": "[1]; [5]", "value": 5350, "unit": "ng·h/mL"}, {"measurement": "Cmax", "setting": "[1]; [5]", "value": 2550, "unit": "ng/mL"}, {"measurement": "clearance", "setting": "[1]; [5]", "value": 0.883, "unit": "mL/min/kg"}, {"measurement": "half-life", "setting": "[1]; [5]", "value": 1.7, "unit": "h"}, {"measurement": "AUC(0-inf)", "setting": "[1]; [6]", "value": 7640, "unit": "ng·h/mL"}, {"measurement": "Cmax", "setting": "[1]; [6]", "value": 3490, "unit": "ng/mL"}, {"measurement": "clearance", "setting": "[1]; [6]", "value": 0.9, "unit": "mL/min/kg"}, {"measurement": "half-life", "setting": "[1]; [6]", "value": 2.8, "unit": "h"}, {"measurement": "AUC(0-inf)", "setting": "[1]; [7]", "value": 20200, "unit": "ng·h/mL"}, {"measurement": "Cmax", "setting": "[1]; [7]", "value": 6830, "unit": "ng/mL"}, {"measurement": "clearance", "setting": "[1]; [7]", "value": 0.567, "unit": "mL/min/kg"}, {"measurement": "half-life", "setting": "[1]; [7]", "value": 4.1, "unit": "h"}, {"measurement": "AUC(0-inf)", "setting": "[1]; [8]", "value": 39400, "unit": "ng·h/mL"}, {"measurement": "Cmax", "setting": "[1]; [8]", "value": 9490, "unit": "ng/mL"}, {"measurement": "clearance", "setting": "[1]; [8]", "value": 0.417, "unit": "mL/min/kg"}, {"measurement": "half-life", "setting": "[1]; [8]", "value": 3.7, "unit": "h"}, {"measurement": "clearance", "setting": "[1]; CBP501 […]^2, Day 1, mean, N 6", "value": 1.05, "unit": "mL/min/kg"}, {"measurement": "half-life", "setting": "[1]; CBP501 […]^2, Day 1, mean, N 6", "value": 3.9, "unit": "h"}, {"measurement": "dose-proportionality of Cmax and AUC", "setting": "[1]; in combination with cisplatin, over the dose range evaluated, acetate salt", "value": "showed dose-proportionality"}, {"measurement": "concentration of CBP501 in the subcutaneous tumor xenograft", "setting": "[2]", "value": "1 to 2", "unit": "µM"}, {"measurement": "Cmax", "setting": "[3]", "value": "~4", "unit": "µM"}]}
